Results as given in ChEMBL document CHEMBL5154698, “Novel PHD2/HDACs hybrid inhibitors protect against cisplatin-induced acute kidney injury” (Eur J Med Chem, 2022).
Calls of active or inactive are those of the source. The rule behind the calls is not given here.

Experiments:
Mus musculus [1] = test: Nephroprotective activity against cisplatin-induced acute kidney injury in male C57BL/6 mouse assessed as plasma SCr concentration at 10 mg/kg/day, ip; type: functional
Mus musculus [2] = test: Nephroprotective activity against cisplatin-induced acute kidney injury in male C57BL/6 mouse assessed as plasma BUN concentration at 10 mg/kg/day, ip; type: functional
HK-2 [3] = test: Antiproliferative activity against human HK-2 cells assessed as decrease in cell viability at 50 uM measured in presence of 10 uM cisplatin after 24 hrs by CCK-8 assay; type: functional
Mus musculus [4] = test: Nephroprotective activity against cisplatin-induced acute kidney injury in male C57BL/6 mouse assessed as serum EPO level at 10 mg/kg/day, ip; type: functional
A549 [5] = test: Induction of apoptosis in human A549 cells assessed as apoptotic cell population at 50 uM measured by Annexin V-FITC/propidium iodide staining based flow cytometry assay; type: functional
MCF7 [6] = test: Induction of apoptosis in human MCF7 cells assessed as apoptotic cell population at 50 uM in presence of 100 uM cisplatin measured by Annexin V-FITC/propidium iodide staining based flow cytometry assay; type: functional
A549 [7] = test: Induction of apoptosis in human A549 cells assessed as apoptotic cell population at 50 uM in presence of 100 uM cisplatin measured by Annexin V-FITC/propidium iodide staining based flow cytometry assay; type: functional
Mus musculus [8] = test: Nephroprotective activity against cisplatin-induced acute kidney injury in male C57BL/6 mouse assessed as decrease in expression of NGAL at 10 mg/kg/day, ip; type: functional, organism-based
A549 [9] = test: Antiproliferative activity against human A549 cells assessed as decrease in cell viability at 50 uM in presence of 40 uM cisplatin relative to control; type: functional
Egl nine homolog 1 = Egl nine homolog 1 (Homo sapiens, UniProt Q9GZT9); test: Inhibition of PHD2 (unknown origin) measured by fluorescence polarization assay
Histone deacetylase 4 = Histone deacetylase 4 (Homo sapiens, UniProt P56524); test: Inhibition of HDAC4 (unknown origin) using trypsin and Ac-peptide as substrates
MCF7 [10] = test: Antiproliferative activity against human MCF7 cells assessed as decrease in cell viability at 50 uM relative to control; type: functional, cell-based
Histone deacetylase 2 = Histone deacetylase 2 (Homo sapiens, UniProt Q92769)
MCF7 [11] = test: Induction of apoptosis in human MCF7 cells assessed as apoptotic cell population at 50 uM measured by Annexin V-FITC/propidium iodide staining based flow cytometry assay; type: functional
MCF7 [12] = test: Antiproliferative activity against human MCF7 cells assessed as decrease in cell viability at 50 uM in presence of 100 uM cisplatin relative to control; type: functional
Mus musculus [13] = test: Nephroprotective activity against cisplatin-induced acute kidney injury in male C57BL/6 mouse assessed as decrease tubular injury at 10 mg/kg/day, ip; type: functional, organism-based
[14] = target: T1, Protein deacetylase HDAC6 (Homo sapiens, UniProt Q9UBN7); test: Inhibition of HDAC6 (unknown origin) using trypsin and Ac-peptide as substrates
T1 sequence (Q9UBN7 whole entry): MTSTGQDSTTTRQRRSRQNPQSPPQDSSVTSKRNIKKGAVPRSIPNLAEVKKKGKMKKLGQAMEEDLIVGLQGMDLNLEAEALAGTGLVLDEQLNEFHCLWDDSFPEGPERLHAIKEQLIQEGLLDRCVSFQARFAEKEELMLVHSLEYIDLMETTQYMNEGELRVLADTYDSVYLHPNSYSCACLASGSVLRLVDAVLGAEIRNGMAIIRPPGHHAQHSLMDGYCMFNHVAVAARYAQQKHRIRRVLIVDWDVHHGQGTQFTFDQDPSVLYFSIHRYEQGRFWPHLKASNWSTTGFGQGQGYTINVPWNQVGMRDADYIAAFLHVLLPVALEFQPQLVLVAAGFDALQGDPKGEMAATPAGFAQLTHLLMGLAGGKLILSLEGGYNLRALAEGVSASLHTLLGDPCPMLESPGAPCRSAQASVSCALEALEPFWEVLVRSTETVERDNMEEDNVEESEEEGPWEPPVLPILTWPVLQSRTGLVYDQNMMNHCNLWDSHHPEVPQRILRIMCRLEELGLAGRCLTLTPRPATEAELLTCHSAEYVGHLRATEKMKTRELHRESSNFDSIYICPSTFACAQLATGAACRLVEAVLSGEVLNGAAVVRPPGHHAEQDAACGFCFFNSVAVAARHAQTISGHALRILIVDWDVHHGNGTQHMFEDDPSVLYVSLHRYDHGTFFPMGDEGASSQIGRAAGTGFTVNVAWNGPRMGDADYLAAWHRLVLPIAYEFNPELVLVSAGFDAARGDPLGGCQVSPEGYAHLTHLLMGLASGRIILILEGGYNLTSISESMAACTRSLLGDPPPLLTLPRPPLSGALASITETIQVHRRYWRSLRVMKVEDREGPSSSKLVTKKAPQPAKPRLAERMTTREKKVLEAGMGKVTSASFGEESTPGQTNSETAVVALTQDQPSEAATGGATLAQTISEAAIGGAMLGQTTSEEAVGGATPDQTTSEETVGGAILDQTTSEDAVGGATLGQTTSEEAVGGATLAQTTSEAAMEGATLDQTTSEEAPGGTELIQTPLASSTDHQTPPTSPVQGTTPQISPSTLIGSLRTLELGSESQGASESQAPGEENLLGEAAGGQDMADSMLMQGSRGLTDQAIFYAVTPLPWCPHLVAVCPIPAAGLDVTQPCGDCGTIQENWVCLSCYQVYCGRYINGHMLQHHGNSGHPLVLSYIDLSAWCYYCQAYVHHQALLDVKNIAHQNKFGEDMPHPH

A549 [15] = test: Antiproliferative activity against human A549 cells assessed as decrease in cell viability at 50 uM relative to control; type: functional, cell-based
Histone deacetylase 1 = Histone deacetylase 1 (Homo sapiens, UniProt Q13547); test: Inhibition of HDAC1 (unknown origin) using trypsin and Ac-peptide as substrates
HK-2 [16] = test: Antiproliferative activity against human HK-2 cells assessed as decrease in cell viability at 0.78 uM measured after 24 hrs by CCK-8 assay; type: functional

Sequence of Egl nine homolog 1 (Q9GZT9 whole entry): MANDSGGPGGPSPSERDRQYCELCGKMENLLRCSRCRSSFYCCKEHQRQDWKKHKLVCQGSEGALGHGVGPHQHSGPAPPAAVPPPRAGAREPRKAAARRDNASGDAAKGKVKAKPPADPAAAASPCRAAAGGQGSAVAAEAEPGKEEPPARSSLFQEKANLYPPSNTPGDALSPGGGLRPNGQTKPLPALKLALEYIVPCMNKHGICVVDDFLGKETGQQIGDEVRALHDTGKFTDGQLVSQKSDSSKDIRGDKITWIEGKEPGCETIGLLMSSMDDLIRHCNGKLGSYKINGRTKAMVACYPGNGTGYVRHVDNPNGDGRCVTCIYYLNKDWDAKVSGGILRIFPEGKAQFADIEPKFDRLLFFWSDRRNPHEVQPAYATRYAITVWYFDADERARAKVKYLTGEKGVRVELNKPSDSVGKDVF
Sequence of Histone deacetylase 4 (P56524 whole entry): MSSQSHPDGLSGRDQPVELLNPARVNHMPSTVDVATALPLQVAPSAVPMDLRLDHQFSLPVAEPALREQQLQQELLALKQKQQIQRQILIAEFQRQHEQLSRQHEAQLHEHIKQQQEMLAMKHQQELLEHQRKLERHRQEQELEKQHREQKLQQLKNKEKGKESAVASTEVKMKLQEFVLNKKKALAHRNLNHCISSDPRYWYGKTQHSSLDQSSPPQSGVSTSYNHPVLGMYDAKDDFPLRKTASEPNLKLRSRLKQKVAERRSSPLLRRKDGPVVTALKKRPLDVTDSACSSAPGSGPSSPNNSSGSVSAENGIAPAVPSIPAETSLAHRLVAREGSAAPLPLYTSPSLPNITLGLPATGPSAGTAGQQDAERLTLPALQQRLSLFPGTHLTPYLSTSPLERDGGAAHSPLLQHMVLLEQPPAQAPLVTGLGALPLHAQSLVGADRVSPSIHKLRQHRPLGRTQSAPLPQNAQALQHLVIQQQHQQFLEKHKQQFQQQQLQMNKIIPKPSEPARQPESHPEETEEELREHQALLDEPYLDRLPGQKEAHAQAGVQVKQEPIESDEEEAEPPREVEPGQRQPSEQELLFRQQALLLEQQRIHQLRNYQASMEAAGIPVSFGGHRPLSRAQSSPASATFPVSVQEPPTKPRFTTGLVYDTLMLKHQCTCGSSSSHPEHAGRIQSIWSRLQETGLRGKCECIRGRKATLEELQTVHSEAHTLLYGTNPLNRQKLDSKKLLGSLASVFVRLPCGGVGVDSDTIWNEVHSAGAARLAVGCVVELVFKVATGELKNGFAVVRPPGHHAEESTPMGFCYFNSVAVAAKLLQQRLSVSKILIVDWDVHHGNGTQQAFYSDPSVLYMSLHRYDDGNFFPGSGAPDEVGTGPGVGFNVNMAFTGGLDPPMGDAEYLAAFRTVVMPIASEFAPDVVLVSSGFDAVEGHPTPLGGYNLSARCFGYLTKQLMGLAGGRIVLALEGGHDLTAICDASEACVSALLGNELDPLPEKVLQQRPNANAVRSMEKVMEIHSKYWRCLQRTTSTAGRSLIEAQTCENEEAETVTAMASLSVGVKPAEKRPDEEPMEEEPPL
Sequence of Histone deacetylase 2 (Q92769 whole entry): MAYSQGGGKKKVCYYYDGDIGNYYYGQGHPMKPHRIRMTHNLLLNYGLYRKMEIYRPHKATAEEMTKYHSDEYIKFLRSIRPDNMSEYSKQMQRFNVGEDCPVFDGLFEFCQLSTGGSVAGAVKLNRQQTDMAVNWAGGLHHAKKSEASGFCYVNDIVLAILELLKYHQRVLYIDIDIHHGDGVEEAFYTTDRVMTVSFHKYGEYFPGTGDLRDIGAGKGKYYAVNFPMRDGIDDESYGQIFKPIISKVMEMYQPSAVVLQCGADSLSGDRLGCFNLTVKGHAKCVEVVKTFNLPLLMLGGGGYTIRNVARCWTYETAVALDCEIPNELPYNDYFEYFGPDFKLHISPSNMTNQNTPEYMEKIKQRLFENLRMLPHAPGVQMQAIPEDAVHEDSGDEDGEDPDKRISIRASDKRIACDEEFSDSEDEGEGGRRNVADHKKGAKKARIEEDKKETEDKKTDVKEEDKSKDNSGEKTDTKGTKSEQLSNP
Sequence of Histone deacetylase 1 (Q13547 whole entry): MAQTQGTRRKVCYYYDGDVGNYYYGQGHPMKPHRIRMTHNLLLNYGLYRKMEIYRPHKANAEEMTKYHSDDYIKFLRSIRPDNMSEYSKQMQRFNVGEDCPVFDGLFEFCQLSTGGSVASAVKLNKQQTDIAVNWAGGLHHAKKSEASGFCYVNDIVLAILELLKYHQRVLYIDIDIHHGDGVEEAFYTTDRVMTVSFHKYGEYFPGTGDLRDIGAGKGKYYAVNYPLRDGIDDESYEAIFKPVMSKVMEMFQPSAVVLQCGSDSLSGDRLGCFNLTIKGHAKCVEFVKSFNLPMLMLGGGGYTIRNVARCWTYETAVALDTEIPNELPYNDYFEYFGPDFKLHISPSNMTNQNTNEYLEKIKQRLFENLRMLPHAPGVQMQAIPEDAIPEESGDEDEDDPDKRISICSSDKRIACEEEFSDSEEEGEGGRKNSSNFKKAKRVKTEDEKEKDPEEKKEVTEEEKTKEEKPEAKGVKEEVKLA

Row | Compound | Activity (Mus musculus [1]) [mmol/L] | Activity (Mus musculus [2]) [mmol/L] | Activity (HK-2 [3]) [%] | Activity (Mus musculus [4]) [mIU/ml] | Activity (A549 [5]) [%] | Activity (MCF7 [6]) [%] | Activity (A549 [7]) [%] | Activity (Mus musculus [8]) | Activity (A549 [9]) [%] | IC50 (Egl nine homolog 1) [nM] | IC50 (Histone deacetylase 4) [nM] | Activity (MCF7 [10]) | IC50 (Histone deacetylase 2) [nM] | Activity (MCF7 [11]) [%] | Activity (MCF7 [12]) [%] | Activity (Mus musculus [13]) | IC50 [14] [nM] | Activity (A549 [15]) | IC50 (Histone deacetylase 1) [nM] | Activity (HK-2 [16]) [%]
1 | Cc1nc(C(=O)NCC(=O)O)c(O)c2ccc(Oc3ccccc3)cc12 [ROXADUSTAT] | 0.0947 | 13.91 | 71.12 | 23.46 | – | – | – | – | – | – | – | – | – | – | – | – | – | – | – | –
2 | O=C(NO)c1cnc(N2CCC(NC(=O)c3cnc(-n4cccn4)nc3O)CC2)nc1 | 0.0311 | 10.86 | 61.96 | 15.34 | 4.9 | 26.6 | 13.2 | Active | 39.09 | 1150 | 1170 | Active | 26.6 | 19.3 | 36.83 | Active | 16 | Active | 19.8 | –
3 | CC(/C=C/C(=O)NO)=C\[C@@H](C)C(=O)c1ccc(N(C)C)cc1 [TRICHOSTATIN] | 0.129 | 8.86 | – | – | – | – | – | – | – | – | – | – | – | – | – | – | – | – | – | 70
